Data on 36 compounds can be found in patent US20140004243A1, “SALTY TASTE ENHANCER” (AJINOMOTO CO., INC., priority 2011, published 2014).

In this assay the target is T1, Human ENaC δ, β and γ subunit (Homo sapiens, UniProt P51168+P51170+P51172).
T1 construct: expressed in transfected cells; host or cells: Xenopus laevis (African clawed frog) oocytes injected with cRNA
T1 sequence (P51172 1-802): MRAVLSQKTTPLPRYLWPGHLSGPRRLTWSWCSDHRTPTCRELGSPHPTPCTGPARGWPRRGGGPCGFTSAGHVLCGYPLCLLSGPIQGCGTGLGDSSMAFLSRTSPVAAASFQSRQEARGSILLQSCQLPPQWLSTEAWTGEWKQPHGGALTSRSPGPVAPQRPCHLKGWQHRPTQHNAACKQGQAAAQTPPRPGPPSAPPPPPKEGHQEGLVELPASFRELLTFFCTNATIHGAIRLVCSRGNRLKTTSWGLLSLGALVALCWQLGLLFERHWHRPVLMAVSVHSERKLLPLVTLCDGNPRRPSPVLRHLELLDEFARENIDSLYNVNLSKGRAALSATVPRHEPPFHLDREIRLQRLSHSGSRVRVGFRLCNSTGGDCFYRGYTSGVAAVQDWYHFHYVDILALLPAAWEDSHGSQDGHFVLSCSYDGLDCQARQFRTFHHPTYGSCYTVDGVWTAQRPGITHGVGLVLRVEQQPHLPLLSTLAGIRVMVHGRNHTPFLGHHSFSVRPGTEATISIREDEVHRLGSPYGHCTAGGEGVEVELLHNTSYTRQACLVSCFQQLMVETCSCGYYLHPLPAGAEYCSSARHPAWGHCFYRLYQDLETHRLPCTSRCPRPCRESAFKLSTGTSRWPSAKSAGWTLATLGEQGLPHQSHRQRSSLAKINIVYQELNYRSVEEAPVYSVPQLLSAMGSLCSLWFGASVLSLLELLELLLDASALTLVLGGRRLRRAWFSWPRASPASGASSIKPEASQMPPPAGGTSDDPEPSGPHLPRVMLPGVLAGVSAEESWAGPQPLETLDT
T1 sequence (P51168 1-640): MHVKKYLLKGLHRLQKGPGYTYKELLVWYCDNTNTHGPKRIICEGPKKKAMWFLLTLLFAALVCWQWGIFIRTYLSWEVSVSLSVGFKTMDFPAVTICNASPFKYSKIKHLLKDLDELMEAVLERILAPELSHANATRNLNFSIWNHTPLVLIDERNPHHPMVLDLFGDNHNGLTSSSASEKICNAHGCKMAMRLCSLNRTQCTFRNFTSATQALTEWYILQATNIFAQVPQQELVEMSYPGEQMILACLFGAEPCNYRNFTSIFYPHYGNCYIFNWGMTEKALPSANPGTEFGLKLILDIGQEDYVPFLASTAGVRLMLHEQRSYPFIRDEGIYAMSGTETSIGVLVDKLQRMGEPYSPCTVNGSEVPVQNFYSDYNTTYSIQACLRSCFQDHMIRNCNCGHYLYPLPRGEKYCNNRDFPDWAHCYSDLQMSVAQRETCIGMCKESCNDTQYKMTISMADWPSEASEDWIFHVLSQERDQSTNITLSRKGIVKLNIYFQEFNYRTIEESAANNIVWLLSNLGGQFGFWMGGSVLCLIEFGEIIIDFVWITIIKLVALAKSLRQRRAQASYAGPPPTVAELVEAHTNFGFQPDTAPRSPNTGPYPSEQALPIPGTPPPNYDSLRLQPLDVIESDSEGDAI
T1 sequence (P51170 1-649): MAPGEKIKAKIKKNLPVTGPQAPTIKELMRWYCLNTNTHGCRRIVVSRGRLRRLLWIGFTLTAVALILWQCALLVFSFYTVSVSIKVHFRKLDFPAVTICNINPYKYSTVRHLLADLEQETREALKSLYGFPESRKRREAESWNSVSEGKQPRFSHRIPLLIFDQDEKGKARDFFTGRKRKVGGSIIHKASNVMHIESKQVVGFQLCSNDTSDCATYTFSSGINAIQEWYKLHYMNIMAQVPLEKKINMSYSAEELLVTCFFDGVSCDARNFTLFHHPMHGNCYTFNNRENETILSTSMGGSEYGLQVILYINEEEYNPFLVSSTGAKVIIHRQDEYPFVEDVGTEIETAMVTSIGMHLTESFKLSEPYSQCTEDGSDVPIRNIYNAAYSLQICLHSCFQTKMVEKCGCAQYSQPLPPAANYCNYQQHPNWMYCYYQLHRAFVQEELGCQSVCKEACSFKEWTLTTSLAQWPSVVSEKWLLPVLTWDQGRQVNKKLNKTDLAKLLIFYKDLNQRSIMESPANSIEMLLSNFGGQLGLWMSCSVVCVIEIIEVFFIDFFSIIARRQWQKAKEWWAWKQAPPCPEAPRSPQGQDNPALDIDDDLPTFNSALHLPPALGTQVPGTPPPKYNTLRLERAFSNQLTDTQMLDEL
The experiment in a line: Measurement of ENaC activation potency (MED) in ENaC-expressing oocyte, Two Electrode Voltage Clamp. The format is cell-based. The conditions noted are these: minimum effective dose at which current started to increase; ENaC-expressing African clawed frog oocyte; smaller MED = higher ENaC activation potency. How it is done: ENaC activation current value, namely, the inward current in ENaC-expressing oocyte was measured as follows.
According to the method described in Motonao Nakamura, Takao Shimizu: Experiment of African clawed frog oocyte, Experimental Medicine Vol. 11, No. 3, 224-232 (1993), oocyte was collected from African clawed frog, […], and the current value was measured by a Two Electrode Voltage Clamp technique. In the present invention, ND96 (96 mM NaCl, 2 mM KCl, 1 mM MgCl2, 5 mM Hepes, 1.8 mM CaCl2, pH 7.6) was used instead of MBS buffer in the above-mentioned document. Injector NANOLITER 2000 manufactured by World Precision Instruments was used for microinjection, OpusXpress 6000A manufactured by Molecular Devices was used for current value measurement by a Two Electrode Voltage Clamp technique, and Clampfit 10.2 software manufactured by Molecular Devices was used for data analysis.
Human ENaC δ, β and γ subunit genes shown by SEQ ID NOs: 1, 2 and 3, respectively, in the Sequence Listing were each cloned into a plasmid vector, and used as a template DNA for cRNA synthesis. cRNA was synthesized using MEGAscript kit manufactured by Ambion and according to the method of the manual of the manufacturer.
A mixture of the same amount of ENaC […] cRNA (0.4 to 0.8 μg/μL), and β and γ subunits cRNA (0.4 μg/μL) was injected into the oocyte of African clawed frog at […] per oocyte, and the oocyte was cultured for 16 hr-72 hr. Thereafter, the oocyte was set on a measuring apparatus OpusXpress 6000A, the electrodes were inserted into the oocyte, the voltage was clamped at a level lower by −30 mV than the resting membrane potential by a Two Electrode Voltage Clamp technique, and the current value was measured.
To measure the ENaC activation potency, oocyte was stimulated with each test compound, and the minimum effective dose (hereinafter to be abbreviated as MED) of the compound at the time point when the electric current started to increase was measured. In this case, whichever smaller value of the minimum effective dose of the stimulation compound that increased the current value by not less than 10%, and the minimum effective concentration of the compound that increased, by not less than 25%, the electric current increase value due to the stimulation by 5 μM capsazepine (CAS NO.: 138977-28-3), as compared to the current value before addition of the compound and without stimulation, was taken as MED. A smaller MED means higher ENaC activation potency.
Each test compound was directly dissolved in ND96, or first dissolved in dimethyl sulfoxide (DMSO) to 100 mM, and then prepared by diluting the solution with ND96 to a concentration used for the evaluation. The concentration of the test compound in ND96 was prepared to various concentrations within the range of 0.1 nM to 300 μm.
ND96 as a perfusion fluid was flown at a rate of 0.5 mL/min through the measuring apparatus OpusXpress 6000A on which ENaC-expressing oocyte was set, the perfusion fluid was temporarily stopped every 3 minutes to add a test compound solution (0.25 mL) dissolved in ND96 at a rate of 0.5 mL/min. In this way, the test compound was contacted with ENaC-expressing oocyte, and whether ENaC is activated by the compound was examined by measuring the current value. After addition of the test compound, feeding of the perfusion fluid was resumed to wash away the compound to be ready for the next addition of the compound.
The compound was added successively from a low concentration to a high concentration to stimulate ENaC-expressing oocyte. The concentrations actually added was, for example, 1 nM, 3 nM, 10 nM, 30 nM, 100 nM, 300 nM; 1 μM, 3 μM, 10 μm, 30 μm, 100 μm, 300 μm; 1.2 μM, 6 μM, 30 μm, 150 μm of one test compound. The compound was added from low concentrations to high concentrations at 3 min intervals. […]
(Two-electrode voltage clamp is typically applied to oocytes expressing channels or transporters.)
The compound `S=C(NCCc1ccccc1)NCc1ccccc1` [Example 8] yielded an MED of 1 µM.
With `COc1ccc(CCNC(=S)NCc2ccccc2)cc1` [Example 16], the MED was found to be 3 µM.
Take `S=C(NCCc1ccccc1)NCCc1ccccc1` [Example 13]: the MED amounted to 10 µM.
Turning to `C[C@@H](NC(=S)NN)c1ccccc1` [Example 36], the MED worked out at 30 µM.
The result for `C[C@@H](NC(=S)NCC(O)c1cccc(O)c1O)c1cccc(O)c1` (stereo partly drawn) [Example 111] reads 0.06 to 0.1 µM.
The result for `Oc1cc(O)cc(CNC(=S)NCCc2ccccc2)c1` [Example 68] reads 3 µM; that for `C[C@@H](NC(=S)NCCc1ccccc1O)c1ccccc1` [Example 85], 0.6 µM; that for `CN(CCc1ccccc1)C(=S)Nc1ccccc1C(=O)O` [Example 38], 0.1 µM.
Compound `O=C(O)c1ccccc1NC(=S)Nc1ccc(Cl)cc1` [Example 117] returned an MED of 0.3 µM.
The value for `N#Cc1ccc(CNC(=S)NCCc2ccccc2)cc1` [Example 65] was 3.3 µM; that for `COc1cccc(OC)c1CNNC(=S)N[C@H](C)c1ccccc1` [Example 93, 1-(2,6-dimethoxybenzyl)-4-((R)-1-phenylethyl)thiosemicarbazide] was 30 µM.
The result for `COc1ccccc1CCNC(=S)NCc1ccccc1` [Example 29] reads 3.3 µM; that for `S=C(NCCc1ccccc1)NCc1nc2ccccc2[nH]1` [Example 33], 3 µM.
On to `S=C(NCc1ccccc1)NCC(c1ccccc1)c1ccccc1` [Example 59], for which the MED was determined as 10 µM.
The value for `Oc1ccc(CNC(=S)NCCc2ccccc2)cc1` [Example 43] was 1 µM.
For the compound `C[C@@H](NC(=S)NCCc1ccccc1O)c1ccc(O)c(O)c1` [Example 104], the MED was 0.06 to 0.1 µM.
Turning to `S=C(NCCc1ccccc1)N(Cc1ccccc1)Cc1ccccc1` [Example 22], the MED is 30 µM.
Turning to `Oc1ccc(NC(=S)NCCc2ccccc2)cc1O` [Example 47, 1-(3,4-dihydroxyphenyl)-3-(2-phenylethyl)thiourea], the MED turned out to be 5 µM.
Take `Oc1ccc(CNC(=S)Nc2ccccc2)cc1O` [Example 46]: the MED came out at 3 µM.
The result for `COC(=O)c1ccccc1NC(=S)N(C)CCc1ccccc1` [Example 37] reads 3 µM; that for `Oc1ccc(CNC(=S)NCCc2ccc(Cl)cc2)cc1O` [Example 1], 1 µM; that for `CN(CCc1ccccc1O)C(=S)Nc1ccc(O)cc1C(=O)O` [Example 124], 0.3 µM.
`Oc1cccc(CCNC(=S)NCc2ccccc2)c1` [Example 63] yielded an MED of 3.3 µM.
The compound `COC[C@@H](Cc1ccccc1)NC(=S)NCc1ccccc1` [Example 84] registered an MED of 10 µM.
The value for `Oc1ccc(CNC(=S)NCc2ccccc2)cc1O` [Example 45] was 3 µM; that for `O=C(O)c1ccccc1NC(=S)Nc1ccccc1` [Example 39] was 1 µM; that for `S=C(NCCc1ccccc1)Nc1ccccc1` [Example 9] was 3 µM.
The result for `COC(=O)c1ccccc1/C=N/NC(=S)N[C@H](C)c1ccccc1` [Example 96, methyl 2-{(E)-[4-((R)-1-phenylethyl)thiosemicarbazono]methyl}benzoate] reads 30 µM.
Compound `O=C(O)c1ccc(CNC(=S)NCCc2ccccc2)cc1` [Example 23] displayed an MED of 10 µM.
The value for `C[C@@H](NC(=S)N[C@@H](Cc1ccccc1)C(=O)O)c1cccc(O)c1` [Example 108] was 0.3 µM; that for `NC(=O)[C@@H](NC(=S)NCCc1ccccc1)c1ccccc1` [Example 103] was 3 µM; that for `S=C(NCCc1ccccc1)NCCc1c[nH]c2ccccc12` [Example 7] was 5 µM.
In turn, `C[C@@H](NC(=S)N[C@@H](Cc1ccc(O)cc1)C(=O)O)c1cccc(O)c1` [Example 110] gave an MED of 0.3 µM.
The result for `CN(Cc1ccc(O)c(O)c1)C(=S)NCCc1ccc(Cl)cc1` [Example 5] reads 1 µM; that for `C[C@@H](NC(=S)NCC(O)c1cc(Br)ccc1O)c1cccc(O)c1` (stereo partly drawn) [Example 116], 0.1 µM; that for `COC[C@@H](NC(=S)NCCc1ccccc1)c1ccccc1` [Example 75], 1 µM.
